Data published in ChEMBL document CHEMBL4251615, “Discovery of anilino-furo[2,3-d]pyrimidine derivatives as dual inhibitors of EGFR/HER2 tyrosine kinase and their anticancer activity” (Eur J Med Chem, 2018).
Activity calls are given as the source filed them. The rule behind the calls is not given here.

Experiments:
[1] = system: A549; assay: Cytotoxicity against human A549 cells assessed as reduction in cell viability after 72 hrs by MTT assay; assay type: functional, cell-based; details: A549, 72 h
[2] = biological target: T1, Epidermal growth factor receptor (Homo sapiens, UniProt P00533); assay: Inhibition of recombinant human C-terminal His/N-terminal GST-tagged EGFR (668 to 1210 residues) expressed in baculovirus infected Sf9 cells at 10 uM using biotin-labeled poly[Glu:Tyr] (4:1) as substrate after 30 mins by Kinase-Glo plus luminescence assay relative to control
T1 sequence (P00533 whole entry, the tested form may be a part): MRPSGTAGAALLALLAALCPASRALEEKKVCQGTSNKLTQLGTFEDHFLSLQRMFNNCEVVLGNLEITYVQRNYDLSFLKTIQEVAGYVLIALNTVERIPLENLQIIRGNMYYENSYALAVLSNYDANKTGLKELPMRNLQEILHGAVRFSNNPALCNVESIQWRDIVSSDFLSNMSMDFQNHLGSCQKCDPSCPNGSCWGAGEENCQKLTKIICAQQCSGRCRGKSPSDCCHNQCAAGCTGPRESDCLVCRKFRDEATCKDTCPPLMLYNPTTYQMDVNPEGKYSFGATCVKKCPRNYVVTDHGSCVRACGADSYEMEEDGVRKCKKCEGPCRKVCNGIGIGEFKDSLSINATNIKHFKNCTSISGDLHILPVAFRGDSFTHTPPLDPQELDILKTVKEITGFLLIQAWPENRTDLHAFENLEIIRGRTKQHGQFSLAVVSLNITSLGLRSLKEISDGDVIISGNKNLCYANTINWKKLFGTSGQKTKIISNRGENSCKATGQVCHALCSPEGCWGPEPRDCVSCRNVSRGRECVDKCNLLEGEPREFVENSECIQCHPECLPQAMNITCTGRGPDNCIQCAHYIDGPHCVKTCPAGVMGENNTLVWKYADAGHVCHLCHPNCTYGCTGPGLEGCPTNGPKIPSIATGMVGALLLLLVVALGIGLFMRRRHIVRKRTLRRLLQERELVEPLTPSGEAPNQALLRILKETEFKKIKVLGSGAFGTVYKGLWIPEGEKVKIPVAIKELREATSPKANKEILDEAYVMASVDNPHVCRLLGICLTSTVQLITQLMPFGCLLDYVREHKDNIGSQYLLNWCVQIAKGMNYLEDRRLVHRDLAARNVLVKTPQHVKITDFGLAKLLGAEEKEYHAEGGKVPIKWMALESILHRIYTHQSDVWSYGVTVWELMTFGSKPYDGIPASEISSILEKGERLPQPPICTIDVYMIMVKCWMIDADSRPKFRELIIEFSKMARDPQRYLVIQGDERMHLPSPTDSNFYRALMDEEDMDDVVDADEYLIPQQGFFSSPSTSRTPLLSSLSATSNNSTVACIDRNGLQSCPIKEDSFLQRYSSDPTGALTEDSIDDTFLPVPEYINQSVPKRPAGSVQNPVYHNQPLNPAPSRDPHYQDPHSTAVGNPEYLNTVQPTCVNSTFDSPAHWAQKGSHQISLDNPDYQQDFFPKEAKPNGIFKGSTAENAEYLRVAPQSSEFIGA

[3] = system: MCF7; assay: Cytotoxicity against human MCF7 cells assessed as reduction in cell viability after 72 hrs by MTT assay; assay type: functional, cell-based; details: MCF7, 72 h
[4] = biological target: T1, Epidermal growth factor receptor; assay: Inhibition of recombinant human C-terminal His/N-terminal GST-tagged EGFR (668 to 1210 residues) expressed in baculovirus infected Sf9 cells using biotin-labeled poly[Glu:Tyr] (4:1) as substrate after 30 mins by Kinase-Glo plus luminescence assay
[5] = system: Mus musculus; assay: Toxicity in albino mouse implanted with mouse EAC cells assessed as body weight change at 5 to 10 mg/kg, po once daily for 8 consecutive days; assay type: organism-based; details: in vivo
[6] = system: Ehrlich; assay: Antitumor activity against mouse EAC cells implanted in albino mouse assessed as increase in caspase-3 expression in tumor at 10 mg/kg, po once daily for 8 consecutive days by immunohistochemical analysis relative to control; assay type: functional
[7] = system: A549; assay: Cell cycle arrest in human A549 cells assessed as accumulation at pre-G1 phase after 24 hrs by propidium iodide staining based flow cytometry relative to control; assay type: functional
[8] = system: A549; assay: Induction of apoptosis in human A549 cells assessed as early apoptotic cells after 24 hrs by Annexin V-FITC/propidium iodide staining based flow cytometry (reference value: 0.26%); assay type: functional
[9] = system: A549; assay: Induction of apoptosis in human A549 cells assessed as live cells after 24 hrs by Annexin V-FITC/propidium iodide staining based flow cytometry (reference value: 97.93%); assay type: functional
[10] = system: A549; assay: Induction of apoptosis in human A549 cells assessed as late apoptotic cells after 24 hrs by Annexin V-FITC/propidium iodide staining based flow cytometry (reference value: 0.11%); assay type: functional
[11] = system: Ehrlich; assay: Antitumor activity against mouse EAC cells implanted in albino mouse assessed as tumor growth inhibition at 5 mg/kg, po once daily for 8 consecutive days relative to control; assay type: functional; details: read-out: TGI
[12] = system: Ehrlich; assay: Antitumor activity against mouse EAC cells implanted in albino mouse assessed as increase in cytochrome-c expression in tumor at 10 mg/kg, po once daily for 8 consecutive days by immunohistochemical analysis; assay type: functional, organism-based
[13] = system: A549; assay: Cell cycle arrest in human A549 cells assessed as accumulation at G2/M phase after 24 hrs by propidium iodide staining based flow cytometry relative to control; assay type: functional
[14] = system: Ehrlich; assay: Antitumor activity against mouse EAC cells implanted in albino mouse assessed as tumor growth inhibition at 10 mg/kg, po once daily for 8 consecutive days relative to control; assay type: functional; details: read-out: TGI
[15] = system: Ehrlich; assay: Antitumor activity against mouse EAC cells implanted in albino mouse assessed as cell death in thigh muscle tumor cells at 10 mg/kg, po once daily for 8 consecutive days by hematoxylin and eosin staining based light microscopic method; assay type: functional, organism-based
[16] = system: Mus musculus; assay: Toxicity in albino mouse implanted with mouse EAC cells assessed as change in organ index at 5 to 10 mg/kg, po once daily for 8 consecutive days; assay type: organism-based; details: in vivo
[17] = system: A549; assay: Induction of apoptosis in human A549 cells assessed as necrotic cells after 24 hrs by Annexin V-FITC/propidium iodide staining based flow cytometry (reference value: 0.17%); assay type: functional
[18] = biological target: Receptor tyrosine-protein kinase erbB-2 (Homo sapiens) (UniProt P04626); assay: Inhibition of recombinant human N-terminal GST-tagged HER2 (679 to 1255 residues) expressed in baculovirus infected Sf9 cells at 10 uM using poly[Glu:Tyr] (4:1) as substrate after 40 mins by Kinase-Glo plus luminescence assay relative to control
Chain of Receptor tyrosine-protein kinase erbB-2 (Homo sapiens) (P04626 whole entry, the tested form may be a part): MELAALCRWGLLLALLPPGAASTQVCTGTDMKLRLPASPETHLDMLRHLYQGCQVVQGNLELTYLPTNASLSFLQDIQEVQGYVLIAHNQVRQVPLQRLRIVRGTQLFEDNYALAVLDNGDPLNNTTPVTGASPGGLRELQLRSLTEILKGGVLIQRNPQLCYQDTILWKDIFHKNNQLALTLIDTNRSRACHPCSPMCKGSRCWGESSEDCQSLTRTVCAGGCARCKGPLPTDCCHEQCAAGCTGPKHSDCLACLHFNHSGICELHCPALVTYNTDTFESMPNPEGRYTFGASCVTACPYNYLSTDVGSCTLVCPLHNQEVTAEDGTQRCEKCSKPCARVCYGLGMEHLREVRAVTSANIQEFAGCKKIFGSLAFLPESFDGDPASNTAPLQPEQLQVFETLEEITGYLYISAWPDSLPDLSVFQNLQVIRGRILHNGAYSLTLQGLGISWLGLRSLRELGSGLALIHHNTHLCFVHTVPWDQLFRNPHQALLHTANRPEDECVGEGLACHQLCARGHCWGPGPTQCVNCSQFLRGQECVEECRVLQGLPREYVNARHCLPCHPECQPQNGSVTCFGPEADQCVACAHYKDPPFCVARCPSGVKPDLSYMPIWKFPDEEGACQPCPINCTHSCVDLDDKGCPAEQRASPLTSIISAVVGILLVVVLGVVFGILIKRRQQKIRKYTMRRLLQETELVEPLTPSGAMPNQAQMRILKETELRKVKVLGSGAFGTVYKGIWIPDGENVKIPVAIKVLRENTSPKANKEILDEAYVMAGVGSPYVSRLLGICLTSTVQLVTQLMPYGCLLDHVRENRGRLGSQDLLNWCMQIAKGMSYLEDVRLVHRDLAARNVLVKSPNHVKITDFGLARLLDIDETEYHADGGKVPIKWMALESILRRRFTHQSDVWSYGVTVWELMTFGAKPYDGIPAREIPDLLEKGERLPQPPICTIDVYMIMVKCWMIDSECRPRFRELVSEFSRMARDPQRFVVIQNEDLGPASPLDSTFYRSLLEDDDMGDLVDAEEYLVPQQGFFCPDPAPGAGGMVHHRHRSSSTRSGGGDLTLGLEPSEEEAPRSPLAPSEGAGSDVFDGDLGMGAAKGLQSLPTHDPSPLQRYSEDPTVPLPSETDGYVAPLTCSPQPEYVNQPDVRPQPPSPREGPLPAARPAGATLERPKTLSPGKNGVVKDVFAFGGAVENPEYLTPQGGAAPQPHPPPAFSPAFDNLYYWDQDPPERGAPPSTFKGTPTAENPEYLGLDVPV

[19] = system: Ehrlich; assay: Antitumor activity against mouse EAC cells implanted in albino mouse assessed as focal cell death in thigh muscle tumor cells at 5 to 10 mg/kg, po once daily for 8 consecutive days by hematoxylin and eosin staining based light microscopic method; assay type: functional, organism-based
[20] = system: Ehrlich; assay: Antitumor activity against mouse EAC cells implanted in albino mouse assessed as tumor growth inhibition administered orally once daily for 8 consecutive days; assay type: functional
[21] = system: A549; assay: Induction of apoptosis in human A549 cells assessed as increase in early apoptotic cells after 24 hrs by Annexin V-FITC/propidium iodide staining based flow cytometry relative to control; assay type: functional
[22] = system: A549; assay: Induction of apoptosis in human A549 cells assessed as increase in late apoptotic cells after 24 hrs by Annexin V-FITC/propidium iodide staining based flow cytometry relative to control; assay type: functional

| SMILES | inhibition [2] | IC50 [1] | IC50 [3] | other results |
| --- | --- | --- | --- | --- |
| Cc1oc2ncnc(Nc3cccc(Cl)c3)c2c1C(=O)NCCO | 85% | > 1000 µM | > 1000 µM | IC50 [4]: 2.7 µM |
| Cc1oc2ncnc(Nc3cccc(Cl)c3)c2c1C(=O)NC(C)C | 21% | > 1000 µM | 190 µM | – |
| Cc1oc2ncnc(Nc3cccc(Br)c3)c2c1CO | 70% | 102 µM | 11 µM | – |
| Cc1oc2ncnc(Nc3ccc(OCc4cccc(F)c4)c(Cl)c3)c2c1C(=O)O | 100% | 21.4 µM | 46 µM | Activity [5]: Non-Toxic; Activity [6]: 51%; fold change (FC) [7]: 17; Activity [8]: 3.72%; Activity [9]: 88.77%; inhibition [18]: 65%; IC50 [4]: 0.951 µM; Activity [10]: 4.84%; inhibition in vivo at 5 mg/kg [11]: 34.9%; Activity [12]: Active; fold change (FC) [13]: 3; inhibition in vivo at 10 mg/kg [14]: 49%; Activity [19]: Active; Activity [16]: Non-Toxic; Activity [17]: 0.8% |
| COc1cc2ncnc(Nc3ccc(F)c(Cl)c3)c2cc1OCCCN1CCOCC1 [GEFITINIB] | – | – | – | Activity [6]: Active; Activity [8]: 5.84%; Activity [9]: 84.12%; Activity [10]: 6.72%; Activity [12]: Active; Activity [15]: Active; Activity [17]: 1.67% |
| CCOC(=O)c1c(C)oc2ncnc(Nc3ccc(OCc4ccc(C)cc4)cc3)c12 | 6% | > 1000 µM | > 1000 µM | inhibition [18]: 20% |
| CCOC(=O)c1c(C)oc2ncnc(Nc3ccc(OCc4cccc(F)c4)c(Cl)c3)c12 | 18% | 0.5 µM | 257 µM | Activity [20]: Dose-dependent effect; Activity [5]: Non-Toxic; fold change (FC) [6]: >2; fold change (FC) [7]: 32; fold change (FC) [21]: 25; Activity [8]: 6.59%; Activity [9]: 81.19%; fold change (FC) [22]: 79; inhibition [18]: 6%; Activity [10]: 8.69%; inhibition in vivo at 5 mg/kg [11]: 35.1%; Activity [12]: Active; fold change (FC) [13]: 5; inhibition in vivo at 10 mg/kg [14]: 67.1%; Activity [15]: Active; Activity [16]: Non-Toxic; Activity [17]: 1.67% |
| Cc1oc2ncnc(Nc3cccc(Br)c3)c2c1C(=O)NCCO | 73% | 17.4 µM | 22 µM | – |
| Cc1cccc(Nc2ncnc3oc(C)c(CO)c23)c1 | 72% | 24 µM | 17 µM | – |

More lines, main results first:

| inhibition [2] | SMILES | IC50 [1] | IC50 [3] | other results |
| --- | --- | --- | --- | --- |
| 22% | CCOC(=O)c1c(C)oc2ncnc(Nc3ccccc3)c12 | > 1000 µM | 851 µM | – |
| 6% | CCOC(=O)c1c(C)oc2ncnc(Nc3cccc(OC)c3)c12 | > 1000 µM | > 1000 µM | – |
| 30% | Cc1oc2ncnc(Nc3ccccc3)c2c1C(=O)O | 191 µM | 246 µM | – |
| 26% | C#Cc1cccc(Nc2ncnc3oc(C)c(C(=O)OCC)c23)c1 | > 1000 µM | > 1000 µM | – |
| 94% | Cc1oc2ncnc(Nc3cccc(Br)c3)c2c1C(=O)O | 43 µM | 68 µM | Activity [5]: Non-Toxic; fold change (FC) [6]: >2; fold change (FC) [7]: 12; Activity [8]: 2.78%; Activity [9]: 92.02%; IC50 [4]: 0.752 µM; Activity [10]: 3.05%; inhibition in vivo at 5 mg/kg [11]: 61.4%; Activity [12]: Active; fold change (FC) [13]: 2; inhibition in vivo at 10 mg/kg [14]: 70.8%; Activity [15]: Active; Activity [16]: Non-Toxic; Activity [17]: 0.66% |
| 10% | CCOC(=O)c1c(C)oc2ncnc(Nc3ccc(OCc4ccccc4)cc3)c12 | > 1000 µM | > 1000 µM | inhibition [18]: 3% |
| 20% | CCCNC(=O)c1c(C)oc2ncnc(Nc3cccc(C)c3)c12 | > 1000 µM | > 1000 µM | – |
| 28% | CCOC(=O)c1c(C)oc2ncnc(Nc3cccc(Cl)c3)c12 | > 1000 µM | > 1000 µM | – |
| 26% | CCOC(=O)c1c(C)oc2ncnc(Nc3cccc(Br)c3)c12 | > 1000 µM | > 1000 µM | – |
| 5% | CCOC(=O)c1c(C)oc2ncnc(Nc3ccc(OCc4cccc(Cl)c4)cc3)c12 | 513 µM | 54 µM | inhibition [18]: 7% |
| 85% | Cc1oc2ncnc(Nc3cccc(Cl)c3)c2c1C(=O)O | 95.5 µM | 57.5 µM | IC50 [4]: 0.901 µM |
| 52% | CCOC(=O)c1c(C)oc2ncnc(Nc3cccc(C)c3)c12 | > 1000 µM | > 1000 µM | – |
| 58% | Cc1cccc(Nc2ncnc3oc(C)c(C(=O)O)c23)c1 | 100 µM | 57.5 µM | – |
